Reference: the NIST ThermoML archive (doi:10.1016/j.jct.2017.06.001)

Test: xn = mol fraction of the nth substance listed
Conditions: 100 kPa, Liquid; for speed of sound: Frequency=5 MHz, Pulse-echo method; for mass density: Vibrating tube method

OCCCCCO [1,5-pentanediol] + O
Conditions | mass density [kg/m3] | speed of sound [m/s]
318.15 K, x1 = 0.005 | 989.65 | –
318.15 K, x1 = 0.0101 | 989.41 | –
318.15 K, x1 = 0.0196 | 989.31 | –
318.15 K, x1 = 0.0251 | 989.53 | –
318.15 K, x1 = 0.0304 | 989.77 | –
318.15 K, x1 = 0.05 | 990.21 | –
318.15 K, x1 = 0.0769 | 990.38 | –
318.15 K, x1 = 0.1002 | 990.62 | –
318.15 K, x1 = 0.1438 | 990.42 | –
318.15 K, x1 = 0.1836 | – | 1646.1
318.15 K, x1 = 0.1845 | 989.72 | –
318.15 K, x1 = 0.1877 | – | 1645.8
318.15 K, x1 = 0.1923 | – | 1645.5
318.15 K, x1 = 0.1928 | – | 1645.4
318.15 K, x1 = 0.1977 | – | 1645
318.15 K, x1 = 0.2017 | – | 1644.7
318.15 K, x1 = 0.2025 | – | 1644.6
318.15 K, x1 = 0.2049 | – | 1644.4
318.15 K, x1 = 0.2132 | – | 1643.6
318.15 K, x1 = 0.2224 | – | 1642.7
318.15 K, x1 = 0.2331 | – | 1641.6
318.15 K, x1 = 0.2482 | – | 1640
318.15 K, x1 = 0.2503 | 988.52 | –
318.15 K, x1 = 0.2698 | – | 1637.7
318.15 K, x1 = 0.2859 | – | 1635.9
318.15 K, x1 = 0.2955 | – | 1634.9
318.15 K, x1 = 0.3 | 987.37 | –
318.15 K, x1 = 0.312 | – | 1633
318.15 K, x1 = 0.3191 | – | 1632.2
318.15 K, x1 = 0.3343 | 986.64 | –
318.15 K, x1 = 0.3352 | – | 1630.3
318.15 K, x1 = 0.3499 | – | 1628.6
318.15 K, x1 = 0.3678 | – | 1626.5
318.15 K, x1 = 0.3857 | – | 1624.3
318.15 K, x1 = 0.4054 | – | 1621.9
318.15 K, x1 = 0.4171 | 985.02 | –
318.15 K, x1 = 0.4216 | – | 1619.8
318.15 K, x1 = 0.4392 | – | 1617.6
318.15 K, x1 = 0.4494 | – | 1616.3
318.15 K, x1 = 0.454 | 984.19 | –
318.15 K, x1 = 0.4703 | – | 1613.5
318.15 K, x1 = 0.4894 | – | 1611
318.15 K, x1 = 0.5003 | 983.3 | –
318.15 K, x1 = 0.5038 | – | 1609.1
318.15 K, x1 = 0.5212 | – | 1606.7
318.15 K, x1 = 0.5362 | 982.6 | –
318.15 K, x1 = 0.5442 | – | 1603.6
318.15 K, x1 = 0.565 | – | 1600.8
318.15 K, x1 = 0.5841 | – | 1598.3
318.15 K, x1 = 0.6039 | – | 1595.7
318.15 K, x1 = 0.6177 | 981.2 | –
318.15 K, x1 = 0.6258 | – | 1592.8
318.15 K, x1 = 0.6425 | – | 1590.6
318.15 K, x1 = 0.6478 | 980.7 | –
318.15 K, x1 = 0.6602 | – | 1588.3
318.15 K, x1 = 0.6789 | – | 1586
318.15 K, x1 = 0.6988 | – | 1583.5
318.15 K, x1 = 0.7025 | 979.9 | –
318.15 K, x1 = 0.7197 | – | 1581
318.15 K, x1 = 0.7436 | – | 1578.2
318.15 K, x1 = 0.7504 | 979.2 | –
318.15 K, x1 = 0.7664 | – | 1575.6
318.15 K, x1 = 0.7919 | – | 1572.7
318.15 K, x1 = 0.7927 | 978.5 | –
318.15 K, x1 = 0.8187 | – | 1569.8
318.15 K, x1 = 0.8416 | – | 1567.3
318.15 K, x1 = 0.8605 | 977.4 | –
318.15 K, x1 = 0.864 | – | 1564.8
318.15 K, x1 = 0.8864 | – | 1562.4
318.15 K, x1 = 0.9004 | 976.7 | –
318.15 K, x1 = 0.9086 | – | 1560
318.15 K, x1 = 0.926 | – | 1558
318.15 K, x1 = 0.9413 | – | 1556.3
318.15 K, x1 = 0.9496 | 975.8 | –
318.15 K, x1 = 0.9573 | – | 1554.4
318.15 K, x1 = 0.971 | – | 1552.7
318.15 K, x1 = 0.9808 | – | 1551.5
318.15 K, x1 = 0.9903 | – | 1550.3
318.15 K, x1 = 0.9952 | – | 1549.7
318.15 K, x1 = 1 | 974.9 | 1549
323.15 K, x1 = 0.005 | 987.42 | –
323.15 K, x1 = 0.0101 | 987.12 | –
323.15 K, x1 = 0.0196 | 986.93 | –
323.15 K, x1 = 0.0251 | 987.06 | –
323.15 K, x1 = 0.0304 | 987.26 | –
323.15 K, x1 = 0.05 | 987.48 | –
323.15 K, x1 = 0.0769 | 987.42 | –
323.15 K, x1 = 0.1002 | 987.52 | –
323.15 K, x1 = 0.1438 | 987.17 | –
323.15 K, x1 = 0.1845 | 986.36 | –
323.15 K, x1 = 0.2503 | 985.12 | –
323.15 K, x1 = 0.3 | 983.93 | –
323.15 K, x1 = 0.3343 | 983.17 | –
323.15 K, x1 = 0.4171 | 981.65 | –
323.15 K, x1 = 0.454 | 980.83 | –
323.15 K, x1 = 0.5003 | 980 | –
323.15 K, x1 = 0.5362 | 979.3 | –
323.15 K, x1 = 0.6177 | 978 | –
323.15 K, x1 = 0.6478 | 977.5 | –
323.15 K, x1 = 0.7025 | 976.7 | –
323.15 K, x1 = 0.7504 | 976.1 | –
323.15 K, x1 = 0.7927 | 975.4 | –
323.15 K, x1 = 0.8605 | 974.4 | –
323.15 K, x1 = 0.9004 | 973.7 | –
323.15 K, x1 = 0.9496 | 972.8 | –
323.15 K, x1 = 1 | 971.9 | –
328.15 K, x1 = 0.005 | 985.03 | –
328.15 K, x1 = 0.0101 | 984.7 | –
328.15 K, x1 = 0.0196 | 984.4 | –
328.15 K, x1 = 0.0251 | 984.49 | –
328.15 K, x1 = 0.0304 | 984.6 | –
328.15 K, x1 = 0.05 | 984.62 | –
328.15 K, x1 = 0.0769 | 984.36 | –
328.15 K, x1 = 0.1002 | 984.33 | –
328.15 K, x1 = 0.1438 | 983.84 | –
328.15 K, x1 = 0.1845 | 982.94 | –
328.15 K, x1 = 0.2503 | 981.66 | –
328.15 K, x1 = 0.3 | 980.46 | –
328.15 K, x1 = 0.3343 | 979.7 | –
328.15 K, x1 = 0.4171 | 978.26 | –
328.15 K, x1 = 0.454 | 977.43 | –
328.15 K, x1 = 0.5003 | 976.6 | –
328.15 K, x1 = 0.5362 | 976 | –
328.15 K, x1 = 0.6177 | 974.8 | –
328.15 K, x1 = 0.6478 | 974.3 | –
328.15 K, x1 = 0.7025 | 973.6 | –
328.15 K, x1 = 0.7504 | 972.9 | –
328.15 K, x1 = 0.7927 | 972.3 | –
328.15 K, x1 = 0.8605 | 971.3 | –
328.15 K, x1 = 0.9004 | 970.7 | –
328.15 K, x1 = 0.9496 | 969.9 | –
328.15 K, x1 = 1 | 969 | –
333.15 K, x1 = 0.005 | 982.48 | –
333.15 K, x1 = 0.0101 | 982.09 | –
333.15 K, x1 = 0.0196 | 981.69 | –
333.15 K, x1 = 0.0251 | 981.7 | –
333.15 K, x1 = 0.0304 | 981.74 | –
333.15 K, x1 = 0.05 | 981.63 | –
333.15 K, x1 = 0.0769 | 981.19 | –
333.15 K, x1 = 0.1002 | 981.04 | –
333.15 K, x1 = 0.1438 | 980.43 | –
333.15 K, x1 = 0.1845 | 979.44 | –
333.15 K, x1 = 0.2503 | 978.15 | –
333.15 K, x1 = 0.3 | 976.99 | –
333.15 K, x1 = 0.3343 | 976.21 | –
333.15 K, x1 = 0.4171 | 974.8 | –
333.15 K, x1 = 0.454 | 973.98 | –
333.15 K, x1 = 0.5003 | 973.2 | –
333.15 K, x1 = 0.5362 | 972.6 | –
333.15 K, x1 = 0.6177 | 971.5 | –
333.15 K, x1 = 0.6478 | 971 | –
333.15 K, x1 = 0.7025 | 970.3 | –
333.15 K, x1 = 0.7504 | 969.7 | –
333.15 K, x1 = 0.7927 | 969.1 | –
333.15 K, x1 = 0.8605 | 968.1 | –
333.15 K, x1 = 0.9004 | 967.6 | –
333.15 K, x1 = 0.9496 | 966.7 | –
333.15 K, x1 = 1 | 965.9 | –
